Assays:
[1] = Binding affinity to His8-tagged Lactococcus lactis ThiT expressed in Lactococcus lactis NZ9000 cells by intrinsic fluorescence titration assay; format: cell-based
[2] = Binding affinity to Lactococcus lactis ThiT Gly129Ala mutant
[3] = Binding affinity to His8-tagged Lactococcus lactis ThiT expressed in Lactococcus lactis NZ9000 cells by isothermal […] analysis; format: cell-based

Kd [2]	SMILES	Kd [1]	Kd [3]
33.9 nM	Cc1ncc(C[n+]2csc(CCO)c2C)c(N)n1 [THIAMINE]	0.122 nM	
	Cc1ncc(Cc2csc(CCO)c2C)c(N)n1 [3-DEAZATHIAMINE]	4.23 nM	
	Cc1c(Cc2cncnc2N)csc1CCO	1020 nM	
	Cc1c(Cc2cnc(N)nc2N)csc1CCO		2920 nM
	Cc1c(Cc2cnc(C(C)C)nc2N)csc1CCO	13.6 nM	
	Cc1c(Cc2cnc(C(F)(F)F)nc2N)csc1CCO	8.48 nM	
	CCc1ncc(Cc2csc(CCO)c2C)c(N)n1	5.04 nM	

— ChEMBL document CHEMBL3817821, “Design and synthesis of thiamine analogues to study their binding to the ECF transporter for thiamine in bacteria” (Medchemcomm, 2016)
